Data taken from patent US8633005B2, “Isocyclomaltooligosaccharide(s), isocyclomaltooligosaccharide-forming enzyme, their preparation and uses” (Hayashibara Co., Ltd., priority 2004, dated 2014).
Like-named read-outs stand apart in the source and are kept apart here.

Assays:
pancreas α-amylase = assay: Digestibility of ICM by pancreas α-amylase; settings: reducing saccharides/total saccharides x100
Text: (§1) 43, 23-29 (1990), the digestibility of ICM by salivary α-amylase, artificial gastric juice, pancreas amylase, and small intestinal enzymes were investigated using ICG5, used in Experiment 15. […] In Table 18, the digestion (%) means a value calculated by the formula: Digestion (%)=(The amount of reducing saccharides/The amount of the total saccharides)×100 , in respective reaction described above.

salivary α-amylase = target: T1, salivary α-amylase (Homo sapiens, UniProt P0DUB6); assay: Digestibility of ICM by salivary α-amylase; settings: reducing saccharides/total saccharides x100
T1 sequence (P0DUB6 16-511): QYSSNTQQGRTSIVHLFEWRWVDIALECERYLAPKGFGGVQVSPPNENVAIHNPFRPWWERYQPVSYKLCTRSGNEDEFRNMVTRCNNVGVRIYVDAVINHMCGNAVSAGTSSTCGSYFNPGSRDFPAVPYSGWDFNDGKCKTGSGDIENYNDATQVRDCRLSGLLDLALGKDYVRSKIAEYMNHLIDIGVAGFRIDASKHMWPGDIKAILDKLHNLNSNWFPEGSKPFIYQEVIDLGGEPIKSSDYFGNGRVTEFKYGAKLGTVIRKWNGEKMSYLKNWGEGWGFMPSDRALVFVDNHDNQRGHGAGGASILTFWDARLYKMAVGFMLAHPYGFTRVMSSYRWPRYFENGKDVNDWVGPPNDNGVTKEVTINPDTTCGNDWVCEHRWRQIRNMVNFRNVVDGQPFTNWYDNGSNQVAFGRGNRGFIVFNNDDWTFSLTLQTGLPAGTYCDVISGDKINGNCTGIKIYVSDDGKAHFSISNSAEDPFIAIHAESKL
Text: as §1

ICM-forming enzyme = assay: Action on various saccharides (substrate specificity, TLC); assay type: biochemical, Bacillus circulans AM7; design: key: −: Not changed; +: Spot of substrate is slightly decreased and the formation of ICM are detected; ++: Spot of substrate is markedly decreased and the formation of ICM are detected; +++: Spot of substrate is virtually disappeared and the formation of ICM are detected; settings: substrate 2% (w/v), one unit/g-substrate enzyme, 40° C., pH 6.0, 24 hours
Method: Substrate specificity of ICM-forming enzyme was investigated using various saccharides as substrates. Substrate solutions were prepared by dissolving maltose, maltotriose, maltotetraose, maltopentaose, maltohexaose, maltoheptaose, neotrehalose, trehalose, kojibiose, nigerose, isomaltose, isomaltotriose, panose, isopanose, maltitol, maltotriitol, α-, β-, or γ-cyclodextrin, amylose, soluble starch, glycogen, pullulan or dextran in water. Each substrate solution was admixed with acetate buffer (pH 6.0) and CaCl2 to give final concentrations of 20 mM and 1 mM, respectively. […] Substrate concentration was set to 2% (w/v) and followed by the enzyme reaction at 40° C. and pH 6.0 for 24 hours. To examine the saccharides in each mixture before and after the reaction, saccharides were separated by silica gel thin-layer chromatography (hereinafter, simply abbreviated as “TLC”) using “KIESELGEL 60”, a TLC aluminum plate (10×20 cm) and a solvent (n-butanol/pyridine/water, volume ratio of 6:4:1) and two-times ascending method. The separated saccharides on the plate were detected by visualizing the spots with sulfate-methanol method. By the above TLC analyses, the enzymatic action and the degree of the reaction of ICM-forming enzyme on each substrate were confirmed.

small intestinal enzymes [1] = assay: Digestibility of ICM by small intestinal enzymes; settings: reducing saccharides/total saccharides x100
Text: as §1

[2] = Digestibility of ICM by artificial gastric juice; settings: reducing saccharides/total saccharides x100
Text: as §1

[3] = Clathrating action of ICM (amount of compound clathrated, gas-chromatography); assay type: physicochemical; settings: 3-folds molar amount
Method: ICG5 used in Experiment 15, was dissolved in deionized water to make into an aqueous solution containing 20% (w/v) of ICG5. Twenty milliliters of the aqueous solution was admixed with 3-folds amount, on a molar basis to ICG5, of either of four kinds of short chain alcohols, i.e., methanol, ethanol, propanol, and butanol; four kinds of short chain fatty acids, i.e., acetic acid, propionic acid, n-butyric acid, and n-valeic acid; and four kinds of aromatic compounds, i.e., benzyl alcohol, phenethyl alcohol, 4-phenyl-1-propanol, and o-cresol; and then stirred the mixture to homogeneity for allowing ICG5 to clathrate the compound. Successively, each solution was filtrated, and the resulting filtrate was freeze-dried to remove unclathrated compound. In order to measure the amount of compound clathrated in the freeze-dried product, the amount of each compound in each freeze-dried product was determined by gas-chromatography. Alpha-CD was used as a control and subjected to the similar test.

small intestinal enzymes [4] = test system: small intestinal enzymes
Text: as §1

[5] = Amino-carbonyl reaction with polypeptone; assay type: physicochemical; settings: with 5% (w/v) polypeptone, 120° C., blank subtracted
Method: ICG5 used in Experiment 15 and commercially available polypeptone, commercialized by Nihon Pharmaceutical Co., Ltd., Tokyo, Japan, were dissolved in deionized water to make into an aqueous solution containing […] and 5% (w/v) of polypeptone. As a control, an aqueous solution containing α-CD and polypeptone was prepared in the same manner using α-CD in place of ICG5. Four milliliters each of the solution was put in a glass tube, sealed and then heated at 120° C. for 30, 60, or 90 min. After cooling the solutions in ambient temperature, the degrees of coloring of the solutions were measured to estimate the degree of amino-carbonyl reaction. As a blank test, a solution containing polypeptone only was heated in the same manner. The degree of coloring was defined as an absorbance at 480 nm using a 1 cm-cell after subtracting the absorbance of the blank test.

[6] = Amino-carbonyl reaction with glycine; assay type: physicochemical; settings: 5% (w/v) saccharide + 1% (w/v) glycine, pH 7.0, 120° C., blank subtracted
Method: ICG5, used in Experiment 15 and commercially available super high-grade glycine were dissolved in deionized water, and then admixed with phosphate buffer to make into an aqueous ICG5 solution containing 5% (w/v) of ICG5 and 1% (w/v) glycine, adjusted to pH 7.0. As a control, an aqueous α-cyclodextrin (α-CD) solution containing α-CD and glycine was prepared in the same manner using α-CD in place of ICG5. Four milliliters each of the solution was put in a glass tube, sealed and then heated at 120° C. for 30, 60, or 90 min. After cooling the solutions in ambient temperature, the degrees of coloring of the solutions were measured to estimate the degree of amino-carbonyl reaction. As a blank test, a solution containing glycine only was heated in the same manner. The degree of coloring was defined as an absorbance at 480 nm using a 1 cm-cell after subtracting the absorbance of the blank test.

Q: For `OC[C@H]1O[C@@H]2O[C@H]3[C@H](O)[C@@H](O)[C@@H](O[C@H]4[C@H](O)[C@@H](O)[C@@H](O[C@H]5[C@H](O)[C@@H](O)[C@@H](O[C@H]6[C@H](O)[C@@H](O)[C@@H](O[C@H]7[C@H](O)[C@@H](O)[C@@H](O[C@H]8[C@H](O)[C@@H](O)[C@@H](O[C@H]9[C@H](O)[C@@H](O)[C@@H](O[C@H]1[C@H](O)[C@H]2O)O[C@@H]9CO)O[C@@H]8CO)O[C@@H]7CO)O[C@@H]6CO)O[C@@H]5CO)O[C@@H]4CO)O[C@@H]3CO` [γ-CD, γ-cyclodextrin], which Digestion (pancreas α-amylase) is on record?
A: 5.4%

Q: What about the Digestion (salivary α-amylase) of the same compound?
A: 0.1%

Q: And the Action (ICM-forming enzyme)?
A: −

Q: What about the Digestion (small intestinal enzymes [1]) of the same compound?
A: 57.4%

Q: What about the Digestion [2] of the same compound?
A: 0%

Q: What does the source list for `OC[C@H]1O[C@@H]2O[C@H]3[C@H](O)[C@@H](O)[C@@H](O[C@H]4[C@H](O)[C@@H](O)[C@@H](O[C@H]5[C@H](O)[C@@H](O)[C@@H](O[C@H]6[C@H](O)[C@@H](O)[C@@H](O[C@H]7[C@H](O)[C@@H](O)[C@@H](O[C@H]1[C@H](O)[C@H]2O)O[C@@H]7CO)O[C@@H]6CO)O[C@@H]5CO)O[C@@H]4CO)O[C@@H]3CO` [α-CD, α-cyclodextrin]?
A: Digestion (pancreas α-amylase): 0%; Amount of compound clathrated ([3]; objective compound: 4-Phenyl 1-propanol (aromatic compound)): 171.5 mg/g-freeze-dried product; Amount of compound clathrated ([3]; objective compound: Acetic acid (short chain fatty acid)): 15.1 mg/g-freeze-dried product; Amount of compound clathrated ([3]; objective compound: Benzyl alcohol (aromatic compound)): 165.7 mg/g-freeze-dried product; Amount of compound clathrated ([3]; objective compound: Butanol (short chain alcohol)): 79.5 mg/g-freeze-dried product; Amount of compound clathrated ([3]; objective compound: Ethanol (short chain alcohol)): 36.7 mg/g-freeze-dried product; Amount of compound clathrated ([3]; objective compound: Methanol (short chain alcohol)): 16.7 mg/g-freeze-dried product; Amount of compound clathrated ([3]; objective compound: Phenethyl alcohol (aromatic compound)): 144.4 mg/g-freeze-dried product; Amount of compound clathrated ([3]; objective compound: Propanol (short chain alcohol)): 66.8 mg/g-freeze-dried product; Amount of compound clathrated ([3]; objective compound: Propionic acid (short chain fatty acid)): 16.6 mg/g-freeze-dried product; Amount of compound clathrated ([3]; objective compound: n-Butyric acid (short chain fatty acid)): 13.2 mg/g-freeze-dried product; Amount of compound clathrated ([3]; objective compound: n-Valeic acid (short chain fatty acid)): 45.0 mg/g-freeze-dried product; Amount of compound clathrated ([3]; objective compound: o-Cresol (aromatic compound)): 49.5 mg/g-freeze-dried product; Digestion (small intestinal enzymes [4]): 0.2%; Degree of coloring ([5]; heating time 0 min): 0.01 A480 nm; Degree of coloring ([5]; heating time 30 min): 0.03 A480 nm; Degree of coloring ([5]; heating time 60 min): 0.04 A480 nm; Degree of coloring ([5]; heating time 90 min): 0.06 A480 nm; Digestion (salivary α-amylase): 0%; Action (ICM-forming enzyme): −; Degree of coloring ([6]; heating time 0 min): 0.02 A480 nm; Degree of coloring ([6]; heating time 30 min): 0.02 A480 nm; Degree of coloring ([6]; heating time 60 min): 0.03 A480 nm; Degree of coloring ([6]; heating time 90 min): 0.02 A480 nm

Q: Which Digestion (pancreas α-amylase) does the source give for `OC[C@H]1O[C@@H]2O[C@H]3[C@H](O)[C@@H](O)[C@@H](O[C@H]4[C@H](O)[C@@H](O)[C@@H](O[C@H]5[C@H](O)[C@@H](O)[C@@H](O[C@H]6[C@H](O)[C@@H](O)[C@@H](O[C@H]7[C@H](O)[C@@H](O)[C@@H](O[C@H]8[C@H](O)[C@@H](O)[C@@H](O[C@H]1[C@H](O)[C@H]2O)O[C@@H]8CO)O[C@@H]7CO)O[C@@H]6CO)O[C@@H]5CO)O[C@@H]4CO)O[C@@H]3CO` [β-CD, β-cyclodextrin] here?
A: 0.2%

Q: And the Digestion (salivary α-amylase)?
A: 0%

Q: What about the Action (ICM-forming enzyme) of the same compound?
A: −

Q: And the Digestion (small intestinal enzymes [1])?
A: 1.1%

Q: What about the Digestion [2] of the same compound?
A: 0%
